Experiments:
HDAC6 [1] = target: T1, HDAC6 (Homo sapiens, UniProt Q9UBN7); design: method as in PMID 26471297; settings: BMDMs; cited from earlier work
T1 sequence (Q9UBN7 1-1215): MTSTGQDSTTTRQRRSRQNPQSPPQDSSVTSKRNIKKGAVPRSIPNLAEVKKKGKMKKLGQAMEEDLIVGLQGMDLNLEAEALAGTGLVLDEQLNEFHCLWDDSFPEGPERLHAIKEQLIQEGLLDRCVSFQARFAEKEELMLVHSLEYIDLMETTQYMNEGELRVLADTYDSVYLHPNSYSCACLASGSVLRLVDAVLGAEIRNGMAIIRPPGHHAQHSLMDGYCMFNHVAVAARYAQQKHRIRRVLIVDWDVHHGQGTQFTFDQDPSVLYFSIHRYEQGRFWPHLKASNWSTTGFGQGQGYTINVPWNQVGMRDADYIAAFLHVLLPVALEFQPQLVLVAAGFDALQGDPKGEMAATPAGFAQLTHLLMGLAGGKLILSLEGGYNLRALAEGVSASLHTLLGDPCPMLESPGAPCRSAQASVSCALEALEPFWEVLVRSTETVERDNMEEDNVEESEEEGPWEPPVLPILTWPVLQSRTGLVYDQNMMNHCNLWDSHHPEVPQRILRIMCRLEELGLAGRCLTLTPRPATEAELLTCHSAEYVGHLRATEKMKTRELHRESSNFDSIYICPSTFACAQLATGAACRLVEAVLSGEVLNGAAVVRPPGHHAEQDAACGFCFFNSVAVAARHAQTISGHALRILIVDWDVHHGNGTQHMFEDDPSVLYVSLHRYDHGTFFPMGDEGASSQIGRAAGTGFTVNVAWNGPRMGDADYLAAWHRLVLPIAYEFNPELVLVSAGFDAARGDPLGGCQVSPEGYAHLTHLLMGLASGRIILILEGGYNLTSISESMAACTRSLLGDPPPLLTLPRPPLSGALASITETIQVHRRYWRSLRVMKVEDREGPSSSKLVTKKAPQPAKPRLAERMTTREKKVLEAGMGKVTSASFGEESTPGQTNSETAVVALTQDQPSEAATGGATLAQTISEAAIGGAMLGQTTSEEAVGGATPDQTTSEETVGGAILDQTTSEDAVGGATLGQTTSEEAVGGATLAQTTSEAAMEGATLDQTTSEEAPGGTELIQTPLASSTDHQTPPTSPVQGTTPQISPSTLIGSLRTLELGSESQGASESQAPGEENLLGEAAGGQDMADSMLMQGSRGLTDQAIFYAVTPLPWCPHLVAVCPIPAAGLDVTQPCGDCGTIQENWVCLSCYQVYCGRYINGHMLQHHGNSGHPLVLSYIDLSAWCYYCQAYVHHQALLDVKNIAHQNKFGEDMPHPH

HDAC6 [2] = target: T1, HDAC6; design: endogenous in cells; method as in PMID 37481141; settings: THP-1 cells; cited from earlier work
NLRP3 inflammasome = assay: IL-1β release in THP-1 cells after nigericin stimulation; assay type: cell-based, human; settings: dTAG 1 μM
Procedure: B, establishment of a THP-1 F10-FKBP cell line with degradable DARPin F10. Immunoblotting with lysates of THP-1 F10-FKBP cells treated at the indicated concentration with dTAG (for 6 h). […] The membrane was probed with antibodies against actin as loading control and F10 (HA-F10-FKBP ^F36V, detected with anti-HA). C, IL-1β release under various treatments in THP-1 F10-FKBP cells at 3 h post-nigericin stimulation. Cells were treated as indicated in the scheme at the top. […] One-way ANOVA test was applied for statistical analysis. ∗∗∗∗p <0.0001. […] D, IL-1β release from 0 h to 3.5 h after nigericin treatment in THP-1 or THP-1-F10-FKBP cells. Experimental set-up was as in (B) and IL-1β concentration was monitored at timepoint 0, 0.5, 1.5, and 3.5 h post nigericin treatment. Two-way ANOVA tests were applied, and comparison was performed within each timepoint between with and without dTAG group. ∗∗p< 0.01. Experimental setup as in (C).
Human IL-1β and IL-18 were determined with Cisbio HTRF Cisbio Human IL1β (#62HIL1BPET) and Human IL18 (#62HIL18PEG) protocols. All the data were from 3 or 4 independent biological replicates.
For BMDM cells, 1.5 × 10^6 cells per well were seeded in six-well plates. After priming with 1 μg/ml LPS (Invivogen #tlrl-b5lps), cells were challenged with 200 μg/ml MSU crystals (Invivogen #tlrl-msu-25) for 6 h or 20 μM nigericin (Sigma-Aldrich #N7143-5MG) for 30 min. […]

HA-F10-FKBP F36V = target: T2, HA-F10-FKBP F36V (Homo sapiens, UniProt P62942, F37V); assay: dTAG-induced degradation of DARPin F10-FKBPF36V in THP-1 cells (immunoblot); assay type: cell-based; settings: F10-FKBPF36V THP-1 cells, within 6 h of dTAG addition
T2 construct: expressed in transfected cells; host or cells: THP-1, lentiviral transduction, single-cell clone
T2 sequence (P62942 2-108 F37V limits assumed): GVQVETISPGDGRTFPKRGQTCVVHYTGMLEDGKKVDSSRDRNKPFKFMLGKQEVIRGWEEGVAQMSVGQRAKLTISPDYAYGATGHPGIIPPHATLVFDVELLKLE
T2 sequence (Q96SW2 whole entry, further chain): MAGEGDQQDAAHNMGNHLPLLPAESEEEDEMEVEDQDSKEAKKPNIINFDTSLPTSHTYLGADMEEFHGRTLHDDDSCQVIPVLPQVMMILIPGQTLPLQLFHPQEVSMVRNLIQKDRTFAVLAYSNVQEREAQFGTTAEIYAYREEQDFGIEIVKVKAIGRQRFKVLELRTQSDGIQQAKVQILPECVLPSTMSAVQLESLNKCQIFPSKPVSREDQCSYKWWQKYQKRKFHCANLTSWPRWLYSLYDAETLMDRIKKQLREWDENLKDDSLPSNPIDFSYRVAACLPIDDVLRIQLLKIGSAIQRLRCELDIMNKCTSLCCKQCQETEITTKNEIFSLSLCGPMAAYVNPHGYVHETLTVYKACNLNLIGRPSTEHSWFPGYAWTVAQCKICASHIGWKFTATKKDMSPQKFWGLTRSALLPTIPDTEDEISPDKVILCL
Procedure: B, establishment of a THP-1 F10-FKBP cell line with degradable DARPin F10. Immunoblotting with lysates of THP-1 F10-FKBP cells treated at the indicated concentration with dTAG (for 6 h). […] The membrane was probed with antibodies against actin as loading control and F10 (HA-F10-FKBP ^F36V, detected with anti-HA).
The membrane was blocked with 5% milk-TBS, and then incubated with primary antibodies overnight at 4 °C. The signal was developed with HRP-conjugated secondary antibodies and Amersham ECL Western Blotting Detection Reagent (Cytiva#RPN2106).

Compound	mIL-1β level (HDAC6 [1])	IL-1β release (HDAC6 [2])	IL-1β release (NLRP3 inflammasome; F10-FKBPF36V THP-1 cells, PMA 0.5 μM, nigericin 15 μM, compared to WT THP-1)	IL-1β release (NLRP3 inflammasome; parental WT THP-1, PMA 0.5 μM 3 h, nigericin 15 μM 3 h, MCC950 10 μM)	degradation of DARPin F10 (HA-F10-FKBP F36V)
CN1CCc2c(c3ccccc3n2Cc2ccc(C(=O)NO)cc2)C1 [Tubastatin A]	did not impact the mIL-1β level	reduced IL-1β release			
CC[C@H](C(=O)N1CCCC[C@H]1C(=O)O[C@H](CCc1ccc(OC)c(OC)c1)c1ccccc1OCC(=O)NCCCCCCOc1cccc2c1C(=O)N(C1CCC(=O)NC1=O)C2=O)c1cc(OC)c(OC)c(OC)c1 (some centres unmarked) [dTAG]			partial, but significant, recovery	comparable	efficiently degraded
